In general, melting point refers to the temperature, or range, at which the solid turns liquid.

With `COc1ccc(C2N3CCSC3=NC2(O)c2ccc(F)cc2)cc1` (centres undefined), the melting point fell in the range of 150 to 151 °C. The value for `OC(c1ccccc1)C1CCN(CCc2ccccc2)CC1` (centres undefined) was 125 to 128 °C. Turning to `CC(=O)Nc1ccc(SCc2nc3ccccc3s2)cc1`, the melting point is 147 to 149 °C.

As to `O=c1oc(-c2ccc(S(=O)(=O)c3ccccc3)cc2)cc(O)c1SCCc1ccccc1`, the melting point fell in the range of 194 to 195 °C. Compound `O=C(O)CCCCc1cc(O)c(O)c([N+](=O)[O-])c1` came in with a melting point of 135 to 138 °C.

For `O=C(O)CCCCCOc1ccc(C2OC3C(CO)OC(n4ccc(=O)[nH]c4=O)C3O2)cc1` (centres undefined), the melting point was 158 to 160 °C. Compound `N#CC(CCN1CCC(C(=O)ON2C(=O)c3ccccc3C2=O)(c2ccccc2)CC1)(c1ccccc1)c1ccccc1` registered a melting point of 156 to 158 °C. The figure for `CCCn1nc2c(N)nc3ccccc3c2c1NC` is 200 to 201 °C.

For the compound `CC1(C)Cc2sccc2C1N` (centres undefined), the melting point was 80 °C.

Compound `COc1ccc(N2CCN(c3ccc(NC4=NC(C)(C)CS4)cc3)CC2)cc1` returned a melting point of 232 °C. Compound `O=Cc1ccc2c(c1)CCC2` showed a melting point of 85 to 86 °C. `[N-]=[N+]=NC[C@H]1CN(c2cccc(F)c2)C(=O)O1` registered a melting point of 81 to 82 °C. The figure for `COC(=O)c1cc2ccc(OCc3ccccc3)cc2oc1=O` is 129 to 130 °C; for `c1ccc(-c2coc3c2ccc2ccccc23)cc1` it is 98 to 109 °C.

In the case of `CC(N)=CC(=O)NCCN1CCOCC1`, the melting point lay within 86 to 93 °C. The value for `CCOC(=O)c1ccc(N2CCN(C(=O)C=Cc3cc(C(C)(C)C)c(O)c(C(C)(C)C)c3)CC2)cc1` was 147 to 150 °C.

Compound `CC(C)(C)OC(=O)NC1CCCOCC=CC2CC2(C(=O)NS(=O)(=O)C2CC2)NC(=O)C2CC(OC(=O)NCC3CCCCC3)CN2C1=O` (centres undefined) gave a melting point of 142 to 144 °C. As to `CSc1ccc2c(c1)CC(C)(C)C(=O)N2`, the melting point worked out at 154 °C. Take `CC(=O)N1N=C(c2ccc([N+](=O)[O-])c(C)c2)c2cc3c(cc2C=C1C)OCO3`: the melting point was 115 to 116 °C. The value for `O=C(O)c1cc(OCCCCCCCCCCCCOc2ccccc2)ccc1OCc1ccccc1` was 85 to 87 °C; that for `CN(C(=O)Nc1ccc2ccccc2c1)c1cccc(-c2ccc(CC3SC(=O)NC3=O)cc2)c1` (centres undefined) was 196 °C; that for `COc1ccc(C(=O)COc2ccc(C(=O)OCc3ccccc3)c(O)c2)cc1C12CC3CC(CC(C3)C1)C2` was 129 °C.

In turn, `CC(C)(C)OC(=O)N1CC(NC(=O)CNC(=NC(=O)OCc2ccc([N+](=O)[O-])cc2)NC(=O)OCc2ccc([N+](=O)[O-])cc2)C1` yielded a melting point of 99 to 101 °C.

The compound `Cc1c(C(=O)NCc2ccc3c(Br)c(O)ccc3c2)oc2ccccc12` returned a melting point of 194 to 197 °C. The figure for `COc1cc2c(cc1OCc1ccccc1)CCC(=O)N2Cc1cc(OC)c(OC)c(OC)c1` is 129 to 130 °C. The figure for `CC1(C)N=C(n2nc(O)ccc2=O)c2cc(Br)ccc2O1` is 196 to 198 °C; for `CSC(=C[N+](=O)[O-])NCCCn1cc(C2=C(c3cn(C)c4ccccc34)C(=O)NC2=O)c2ccccc21` it is 144 to 146 °C; for `O=C1CS(=O)(=O)CN1c1cccc(C(F)(F)F)c1` it is 115 to 117 °C. Turning to `CN1C(c2cccnc2)CC(=O)CC1c1cccnc1` (centres undefined), the melting point is 103 to 106 °C. `CC(C)(C)N1C(=O)OC2(CCN(Cc3ccccc3)CC2)C1(C)O` (centres undefined) came in with a melting point of 179 to 181 °C.

`Cc1c(Cl)nnc2c1CN(C(=O)c1ccccc1F)CC2` returned a melting point of 151 to 153 °C. On to `COC(=O)c1ccc(C(C)(O)c2cc3cc(C(F)(F)F)ccc3n2S(=O)(=O)c2cccc(C(C)(C)C)c2)cc1` (centres undefined), for which the melting point came to 70 °C. The figure for `N#CCc1c[nH]c2ccc(NC(N)=S)cc12` is 212 to 214 °C; for `OC1CCn2c(CCc3ccccc3)nc3cccc1c32` (centres undefined) it is 125 to 126 °C.

The values are drawn from a melting point compilation (Tetko et al.; mined from patent text by program, amines drawn as free bases though some values may be those of a salt).
